From US10533018B2, “Antimicrobial prochelators to target drug-resistant bacteria and methods of making and using the same” (Duke University, priority 2015, dated 2020)

Tests used:
[1] = test system: Methicillin-Resistant Staphylococcus aureus (MRSA); assay: microbe, parasite or virus in culture; type: cell-based
Text: (§1) Bacterial culture reagents including LB broth (Lennox), agar-agar, ampicillin, and ceftriaxone were purchased from Sigma Aldrich Corp. The Escherichia coli (E. coli) K12 strain HB101 and pGLO E. coli transformation kit purchased from Bio-Rad Laboratories Inc. HB101 was transformed with the bla gene via the pGLO plasmid. The bla gene encodes for a TEM-1 β-lactamase that imparts penicillin resistance to the mutant E. coli K-12 strain (+Bla). Strains E. coli UTI89, [27] pCOM-GFP-transformed E. coli UTI89 (pCOM-GFP), [28] and Methicillin-Resistant Staphylococcus aureus (MRSA) clone USA300 [29] have been previously described. The Extended-Spectrum β-Lactamase (ESBL) E. coli, Klebsiella pneumonia (Klebs), and Pseudomonas aeruginosa (Pseudo) strains were clinical isolates acquired deidentified from Duke Hospital and tested for antibiotic susceptibility in the Clinical Microbiology Laboratory using standard clinical susceptibility methods.
(§2) Cultures were incubated on LB (Lennox, Sigma) agar at 37° C. in ambient atmospheric composition. Before beginning an experiment, a single bacterial colony grown on LB agar was resuspended in 2 mL LB broth and incubated overnight to form a turbid cell suspension. The overnight culture was diluted 1:100 in LB and used immediately as the working culture. To assess the antibacterial activity of compounds, the working bacterial culture was aliquoted in a clear, flat-bottomed, 96-well polystyrene plate (Costar) and the compound of interest was added in 2-fold serial dilution from 500 to 1 μM. Plates were covered with a breathable sealing film (Aeroseal, Genesee Scientific) and incubated at 37° C. in ambient atmospheric composition with shaking at 200 rpm. Optical density at 600 nm was recorded after 4 h and 20 h for each well using a standard OD600 protocol with LB serving as the blank. The resulting dose-response curves were fit to a nonlinear regression in GraphPad Prism Version 6 to calculate the IC50 of DB4-51 in each strain.
(§3) The ability of DB4-162 to inhibit bacterial growth was assessed by a traditional broth microdilution method that assesses the turbidity of liquid cultures in the presence of varying concentrations of the compound. As described above for DB4-51, the antibacterial properties of the prochelator DB4-162 were assessed in non-pathogenic lab-strain HB101K-12 E. coli and compared to the pGLO-transfected mutant HB101K-12 E. coli that express β-lactamase. Clinically relevant pathogenic bacteria were also screened, including UTI89 E. coli, pCOM transfected UTI89 E. coli (pCOM), extended spectrum β-lactamase (ESBL) E. coli, methicillin-resistant Staphylococcus aureus (MRSA), and Klebsiella pneumonia (Klebs). In addition to being naturally resistant to many β-lactam antibiotics, MRSA can produce a number of β-lactamases. […] It should be noted that all of the bacteria tested are gram-negative except for gram-positive MRSA.
(§4) The goal of this screen was to calculate the IC50 of the prochelator in a series of pathogenic bacteria and compare these values to the IC50 of known antibiotics in those same strains to determine the relative effectiveness of DB4-162 against the drug-resistant and drug-susceptible bacteria in comparison to current antibiotic treatment options. Bacterial growth was monitored in LB broth at 37° C. in the presence and absence of DB4-162 for 20 hours. A concentration gradient of DB4-162 from 500 to 0 μM was used to screen all 7 strains of bacteria and the dose-response curves were fit to a […] to calculate the IC50 of DB4-162 in each strain. These IC50 values are an approximation of how effectively DB4-162 inhibits the growth of each bacterial strain in vitro.
(§5) IC50 values for ampicillin were calculated via broth microdilution in LB broth only. Values are listed as the mean followed by the 95% confidence interval about the mean. Mean and confidence intervals were calculated from a variable slope, nonlinear regression fit to the dose-response OD600 data. […]

[2] = test system: Klebsiella pneumonia (Klebs); assay: Broth microdilution growth inhibition (OD600); type: cell-based
Text: as §1, §2, §3, §4, §5

[3] = test system: resistant E. coli HB101 K-12 transformed to express β-lactamase; assay: microbe, parasite or virus in culture; type: cell-based, Escherichia coli; conditions: for IC50: Escherichia coli
Description: In order to determine the antibiotic activity of DB4-51, a debilitated strain of Escherichia coli (HB101 K-12) was transformed with the pGLO plasmid from Bio-Rad in order to express β-lactamase. This transformation was confirmed by growing on a selective medium containing 100 μg/ml ampicillin in Lennox LB with 1.5% agar. A broth microdilution assay was employed to determine the relative activity of DB4-51 against susceptible (HB 101 K-12, no β-lactamase) and resistant (HB 101 K-12 transformed to express β-lactamase) E. coli. […] The bacterial growth was monitored by recording each well's absorbance at 600 nm (OD600.) The OD600 values of E. coli suspensions incubated with various compounds were compared in order to assess their activities.
FIG. 7: OD600 of susceptible and resistant K-12 E. coli cultures against DB4-51 and known antibiotics as a function of concentration. Ampicillin has a penicillin core and cephalexin has a cephalosporin core. Cultures were grown in LB broth at 37° C. while shaking at 200 rpm for 18 hours and then diluted to an OD600 of 0.005 before adding the compounds. […]
Table 1: Calculated IC50 values for DB4-51, cephalexin, ampicillin, and pyrithione. These values were derived by fitting the data to a log dose-response curve and reporting the concentration corresponding to half the maximum OD600 value for each compound.

UTI89 E. coli = assay: Broth microdilution growth inhibition (OD600); type: cell-based, Escherichia coli; conditions: UTI89 E. coli
Text: as §1, §2, §3, §4, §5

[4] = Staphylococcus aureus, LB + 500 μM BCS
[5] = Klebsiella pneumoniae, LB + 10 μM CuCl2
[6] = Klebsiella pneumoniae, LB + 500 μM BCS
[7] = Klebsiella pneumoniae, LB broth
[8] = Escherichia coli, LB + 10 μM CuCl2
[9] = Escherichia coli, LB + 500 μM BCS

Compound | IC50 [1, 4] [nM] | IC50 [2, 5] [nM] | IC50 [2, 6] [nM] | IC50 [2, 7] [nM] | IC50 [3] [nM] | IC50 (UTI89 E. coli; [8]) [nM] | IC50 (UTI89 E. coli; [9]) [nM] | IC50 (UTI89 E. coli; Escherichia coli, LB broth) [nM] | IC50 ([1]; LB broth) [nM] | IC50 ([2]; LB broth) [nM] | IC50 (UTI89 E. coli; LB broth) [nM] | IC50 (UTI89 E. coli; LB broth, listed as ampicillin) [nM] | change in IC50 value as a function of Cu availability ([1]; Cu-replete vs Cu-limited) [fold] | decrease of IC50 over time ([3]; resistant K-12, over 22 hours) [%] | IC50 ([1]; Staphylococcus aureus, LB + 10 μM CuCl2) [nM] | IC50 ([1]; Staphylococcus aureus, LB broth) [nM]
[O-][n+]1ccccc1S [PT, 2-mercaptopyridine N-oxide] | 11 | 9 | 19 | 11 | < 18000 | 4 | 6 | 2 | – | – | – | – | – | – | – | –
CC1(C)S[C@@H]2[C@H](NC(=O)[C@H](N)c3ccccc3)C(=O)N2[C@H]1C(=O)O [Ampicillin] | – | – | – | – | > 560000 | – | – | – | > 250000 | > 250000 | 3 | 3000 | – | – | – | –
O=C(Cc1ccccc1)N[C@@H]1C(=O)N2C(C(=O)O)=C(CSc3cccc[n+]3[O-])CS[C@H]12 [DB4-51, 2-((((6R,7R)-2-carboxy-8-oxo-7-(2-phenylacetamido)-5-thia-1-azabicyclo[4.2.0]oct-2-en-3-yl)methyl)thio)pyridine 1-oxide] | – | 25 | 20 | – | 39000 | 21 | 17 | – | – | – | – | – | 55 | 50 | – | –
Cc1csc(=S)n1OCC1=C(C(=O)O)N2C(=O)[C@@H](NC(=O)Cc3ccccc3)[C@H]2SC1 [DB4-162, (6R,7R)-3-(((4-methyl-2-thioxothiazol-3(2H)-yl)oxy)methyl)-8-oxo-7-(2-phenylacetamido)-5-thia-1-azabicyclo[4.2.0]oct-2-ene-2-carboxylic acid] | 2400 | 22000 | 24000 | 28000 | – | 97000 | 77000 | 93000 | – | – | – | – | – | – | 2700 | 2400
